The nature of data set [1]: Volume of distribution at steady state in Wistar rat at 0.30 mg/kg, iv via bolus or 0.30 mg/kg, po measured upto 24 hrs by LC-MS/MS analysis. In kind it is ADME, organism-based. To be noted: in vivo, 0.3 mg/kg, read-out: Vdss.
The target in data set [2] is T1, Cytochrome P450 2C8 (Homo sapiens, UniProt P10632).
T1 sequence (P10632 whole entry): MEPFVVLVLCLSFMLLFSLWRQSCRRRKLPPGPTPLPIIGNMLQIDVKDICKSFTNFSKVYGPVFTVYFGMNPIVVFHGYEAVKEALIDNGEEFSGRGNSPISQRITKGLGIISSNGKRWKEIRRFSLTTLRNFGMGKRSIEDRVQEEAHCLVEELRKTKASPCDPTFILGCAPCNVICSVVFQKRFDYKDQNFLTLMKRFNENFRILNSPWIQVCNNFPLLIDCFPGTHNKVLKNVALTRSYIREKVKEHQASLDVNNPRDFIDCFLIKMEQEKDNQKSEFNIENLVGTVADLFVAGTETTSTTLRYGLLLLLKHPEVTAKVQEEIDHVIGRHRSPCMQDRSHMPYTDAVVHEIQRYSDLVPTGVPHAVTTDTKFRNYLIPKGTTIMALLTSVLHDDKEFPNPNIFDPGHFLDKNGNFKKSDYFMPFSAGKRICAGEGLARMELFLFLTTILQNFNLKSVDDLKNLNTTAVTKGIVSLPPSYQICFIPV
Nature of the data set: Inhibition of CYP2C8 (unknown origin). In kind it is ADME.

Data set [3] relates to Mus musculus. As to the kind of experiment: Time required for unbound plasma concentration to reach IC50 for recombinant full length human N-terminal His-tagged TBK1 in NMRI mouse at 100 mg/kg, po. In kind it is ADME, organism-based. As to conditions: in vivo.
For data set [4], the system named is SK-MEL-2. Nature of the data set: Antitumor activity against human SK-MEL-2 cells harboring NRAS/TP53 mutation xenografted in NMRI nude mouse assessed as tumor weight by measuring T/C ratio at 200 mg/kg, po bid measured after 35 days compound treatment. In kind it is functional.
The target in data set [5] is Cytochrome P450 2D6 (Homo sapiens, UniProt P10635). Nature of the data set: Inhibition of CYP2D6 (unknown origin). In kind it is ADME.
Data set [6] relates to SK-MEL-2. Nature of the data set: Antitumor activity against human SK-MEL-2 cells harboring NRAS/TP53 mutation xenografted in NMRI nude mouse assessed as relative tumor area by measuring T/C ratio at 200 mg/kg, po bid measured after 35 days compound treatment. In kind it is functional. (Xenograft models place foreign cells or tissue in a host animal.)
Data set [7] has as its target T2, Cytochrome P450 3A4 (Homo sapiens, UniProt P08684). Nature of the data set: Inhibition of CYP3A4 (unknown origin). In kind it is ADME.
Data set [8] deals with Mus musculus. Nature of the data set: Time required for unbound plasma concentration to reach IC50 for IKKepsilon/TBK1 in human MDB-MB-231 cells transduced with lentiviral vector expressing human IRF3 in NMRI mouse at 100 mg/kg, po. In kind it is ADME, organism-based. To be noted: in vivo.
The nature of data set [9]: Hepatic extraction ratio in rat liver microsomes at 1 uM measured upto 60 mins by LC-MS/MS analysis. (In general: Liver microsomes are a subcellular fraction often used to study metabolism.)
The nature of data set [10]: Clearance in rat liver microsomes at 1 uM measured upto 60 mins by LC-MS/MS analysis. In kind it is ADME, Microsome. As to conditions: 1 h.
Data set [11] in a line: Terminal half life in Wistar rat at 0.30 mg/kg, iv via bolus or 0.30 mg/kg, po measured upto 24 hrs by LC-MS/MS analysis. In kind it is ADME, organism-based. As to conditions: in vivo, 0.3 mg/kg, read-out: beta t1/2 (converted).
The target of data set [12] is T2, Cytochrome P450 3A4. Nature of the data set: Inhibition of CYP3A4 (unknown origin) measured under preincubated conditions. In kind it is ADME.
The nature of data set [13]: Clearance in Wistar rat at 0.30 mg/kg, iv via bolus measured upto 24 hrs by LC-MS/MS analysis. In kind it is ADME, organism-based. As to conditions: in vivo, 0.3 mg/kg.
The target in data set [14] is T3, Cytochrome P450 1A2 (Homo sapiens, UniProt P05177).
T3 sequence (P05177 whole entry): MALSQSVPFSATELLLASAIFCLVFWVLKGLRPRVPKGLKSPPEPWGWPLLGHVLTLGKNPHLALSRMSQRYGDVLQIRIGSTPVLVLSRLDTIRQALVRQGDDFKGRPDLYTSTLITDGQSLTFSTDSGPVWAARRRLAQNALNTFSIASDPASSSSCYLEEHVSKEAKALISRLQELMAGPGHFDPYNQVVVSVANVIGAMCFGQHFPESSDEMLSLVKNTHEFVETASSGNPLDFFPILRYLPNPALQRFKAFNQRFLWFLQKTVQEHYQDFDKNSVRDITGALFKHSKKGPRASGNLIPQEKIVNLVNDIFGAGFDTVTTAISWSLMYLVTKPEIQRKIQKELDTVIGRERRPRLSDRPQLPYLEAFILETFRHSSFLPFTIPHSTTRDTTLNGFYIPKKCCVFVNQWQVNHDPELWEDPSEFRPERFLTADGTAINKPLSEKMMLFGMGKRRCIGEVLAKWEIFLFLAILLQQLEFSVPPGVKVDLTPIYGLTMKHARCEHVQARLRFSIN
Nature of the data set: Inhibition of CYP1A2 (unknown origin). In kind it is ADME.

Data set [15] deals with Voltage-gated inwardly rectifying potassium channel KCNH2 (Homo sapiens, UniProt Q12809). As to the kind of experiment: Inhibition of human ERG.
Data set [16] has as its target Cytochrome P450 2C9 (Homo sapiens, UniProt P11712). As to the kind of experiment: Inhibition of CYP2C9 (unknown origin). In kind it is ADME.
A short description of data set [17]: Distribution coefficient, log D of compound at pH 7.5. As to conditions: octanol/water. In kind it is physicochemical.
The nature of data set [18]: Solubility of compound in water at pH 6.5. In kind it is physicochemical.
Data set [19] is described as follows: Oral bioavailability in Wistar rat at 0.30 mg/kg measured upto 24 hrs by LC-MS/MS analysis. In kind it is ADME, organism-based. To be noted: in vivo, 0.3 mg/kg.
Data set [20] is described as follows: Toxicity in NMRI nude mouse xenografted with human SK-MEL-2 cells harboring NRAS/TP53 mutation assessed as body weight loss at 200 mg/kg, po bid for 35 days relative to control. In kind it is organism-based. To be noted: in vivo, 840 h.
Data set [21] is described as follows: Hepatic extraction ratio in human liver microsomes at 1 uM measured upto 60 mins in presence of NADP by LC-MS/MS analysis.
Data set [22] is described as follows: Toxicity in NMRI mouse xenografted with human SK-MEL-2 cells assessed as maximum tolerated dose administered orally bid for 35 days. To be noted: in vivo, po.
Data set [23] is described as follows: Clearance in human liver microsomes at 1 uM measured upto 60 mins in presence of NADP by LC-MS/MS analysis. As to conditions: 1 h. In kind it is ADME, Microsome.

The results in this text go back to ChEMBL document CHEMBL4376867 (J Med Chem, 2020).

≈ marks a conversion by molar mass, not a printed value. Where only a bound is given, the exact number is not on record here.

T2 sequence (P08684 whole entry): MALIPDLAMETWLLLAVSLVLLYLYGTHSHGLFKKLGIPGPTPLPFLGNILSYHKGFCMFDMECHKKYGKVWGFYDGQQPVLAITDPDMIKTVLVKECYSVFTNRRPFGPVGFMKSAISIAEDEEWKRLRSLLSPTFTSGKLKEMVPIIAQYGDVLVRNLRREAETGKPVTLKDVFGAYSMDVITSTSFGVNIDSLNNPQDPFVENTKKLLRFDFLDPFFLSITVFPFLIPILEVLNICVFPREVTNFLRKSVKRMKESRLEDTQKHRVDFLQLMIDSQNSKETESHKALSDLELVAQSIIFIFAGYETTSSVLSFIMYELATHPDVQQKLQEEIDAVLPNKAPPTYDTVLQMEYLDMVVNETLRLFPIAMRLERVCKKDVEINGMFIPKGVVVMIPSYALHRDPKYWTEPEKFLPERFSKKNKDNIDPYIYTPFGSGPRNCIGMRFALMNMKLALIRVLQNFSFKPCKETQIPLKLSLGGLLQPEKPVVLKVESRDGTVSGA
Chain of Cytochrome P450 2C9 (P11712 whole entry): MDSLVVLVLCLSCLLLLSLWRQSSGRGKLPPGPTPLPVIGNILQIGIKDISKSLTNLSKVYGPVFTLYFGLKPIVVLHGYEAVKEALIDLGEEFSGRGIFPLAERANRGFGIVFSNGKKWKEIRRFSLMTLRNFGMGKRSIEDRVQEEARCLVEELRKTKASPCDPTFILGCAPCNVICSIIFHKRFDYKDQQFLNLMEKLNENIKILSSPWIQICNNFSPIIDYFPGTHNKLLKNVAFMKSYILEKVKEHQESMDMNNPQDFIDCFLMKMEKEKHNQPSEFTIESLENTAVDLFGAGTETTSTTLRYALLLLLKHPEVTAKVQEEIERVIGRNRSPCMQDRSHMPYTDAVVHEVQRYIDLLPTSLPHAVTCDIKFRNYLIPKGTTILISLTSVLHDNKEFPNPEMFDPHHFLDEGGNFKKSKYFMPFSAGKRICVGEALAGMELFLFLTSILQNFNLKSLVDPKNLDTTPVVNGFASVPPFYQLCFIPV
Chain of Cytochrome P450 2D6 (P10635 whole entry): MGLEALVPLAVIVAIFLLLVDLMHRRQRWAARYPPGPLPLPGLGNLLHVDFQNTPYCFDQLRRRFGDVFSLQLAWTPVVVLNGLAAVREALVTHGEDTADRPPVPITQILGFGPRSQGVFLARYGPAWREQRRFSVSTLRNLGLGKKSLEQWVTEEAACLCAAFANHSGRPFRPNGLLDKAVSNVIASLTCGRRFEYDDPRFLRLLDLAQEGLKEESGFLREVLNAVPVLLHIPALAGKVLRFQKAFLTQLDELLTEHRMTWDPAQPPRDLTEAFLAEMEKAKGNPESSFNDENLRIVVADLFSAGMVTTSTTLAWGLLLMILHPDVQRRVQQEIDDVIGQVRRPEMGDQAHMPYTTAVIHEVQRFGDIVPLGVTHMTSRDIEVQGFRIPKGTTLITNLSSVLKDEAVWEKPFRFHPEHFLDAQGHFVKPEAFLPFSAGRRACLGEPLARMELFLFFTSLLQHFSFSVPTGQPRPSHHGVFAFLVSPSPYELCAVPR
Chain of Voltage-gated inwardly rectifying potassium channel KCNH2 (Q12809 whole entry): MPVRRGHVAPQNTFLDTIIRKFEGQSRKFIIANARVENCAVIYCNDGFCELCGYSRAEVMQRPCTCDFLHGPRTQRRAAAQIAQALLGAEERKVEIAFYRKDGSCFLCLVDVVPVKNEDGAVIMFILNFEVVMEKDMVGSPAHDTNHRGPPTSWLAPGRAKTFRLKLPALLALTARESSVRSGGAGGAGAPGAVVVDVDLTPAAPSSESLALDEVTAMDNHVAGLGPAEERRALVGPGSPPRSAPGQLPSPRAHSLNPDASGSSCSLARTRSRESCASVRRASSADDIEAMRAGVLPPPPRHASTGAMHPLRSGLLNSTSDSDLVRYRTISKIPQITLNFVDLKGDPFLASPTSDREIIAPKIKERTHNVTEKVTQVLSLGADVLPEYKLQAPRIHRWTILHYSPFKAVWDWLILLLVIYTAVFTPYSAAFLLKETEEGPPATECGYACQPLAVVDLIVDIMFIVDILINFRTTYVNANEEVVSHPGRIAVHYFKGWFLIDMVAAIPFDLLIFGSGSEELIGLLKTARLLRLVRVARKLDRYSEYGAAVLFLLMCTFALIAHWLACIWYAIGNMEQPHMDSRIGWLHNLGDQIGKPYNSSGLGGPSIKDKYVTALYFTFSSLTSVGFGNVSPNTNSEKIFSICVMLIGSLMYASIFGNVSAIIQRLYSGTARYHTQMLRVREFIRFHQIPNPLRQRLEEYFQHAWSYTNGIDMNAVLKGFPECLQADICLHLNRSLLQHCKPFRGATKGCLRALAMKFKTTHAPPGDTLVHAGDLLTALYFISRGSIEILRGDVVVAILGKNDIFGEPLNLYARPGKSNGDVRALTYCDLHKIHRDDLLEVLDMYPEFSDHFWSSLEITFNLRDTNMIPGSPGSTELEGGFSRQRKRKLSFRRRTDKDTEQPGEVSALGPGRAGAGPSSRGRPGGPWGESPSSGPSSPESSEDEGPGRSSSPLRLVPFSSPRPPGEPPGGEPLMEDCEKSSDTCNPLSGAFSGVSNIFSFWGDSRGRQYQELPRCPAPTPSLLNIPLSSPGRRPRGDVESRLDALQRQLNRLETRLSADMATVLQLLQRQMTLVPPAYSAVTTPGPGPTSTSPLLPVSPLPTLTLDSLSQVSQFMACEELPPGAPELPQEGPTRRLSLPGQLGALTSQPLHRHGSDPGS

On to `C[C@H](c1ccnc(Nc2nc3ccc(-c4cc(N(C)C)ncn4)cc3[nH]2)c1)N1CCN(C(=O)CC(F)(F)F)CC1` [BAY-985], for which the Vd in [1] is 2.9 L/kg. Besides, the IC50 (commonly the midpoint of a concentration-inhibition curve) in data set [2] was 0.86 µM; in [5] it was above 20 µM; in data set [7], above 20 µM; in [12], above 20 µM; in [14], above 20 µM; in data set [15], 4.7 µM. In addition, in data set [16], the midpoint of inhibition, the IC50, lay at 17 µM. For the same molecule, the Time in data set [3] amounted to 10 h; in [8], 11 h. Besides, the values for the T/C in data set [4] and in data set [6] were 0.6 and 0.8, respectively. The hepatic extraction ratio at 1 h, 1 µM was found to be 0.4 in data set [9] and 0.38 in [21]. Further, the CLH in [10] came to 28.3 mL/min/kg; in [23] it was 8.3 mL/min/kg. The half-life in [11] was 47.4 min. The clearance (in general, a measure of how efficiently the substance is removed, as volume per time) in data set [13] is 66.7 mL/min/kg. Further, the logD (in general, lipophilicity at a set pH, counting ionised and neutral species) in data set [17] was 2.5. Moreover, the solubility (usually the dissolved amount per volume that the medium holds) in [18] was found to be 0.8 µg/mL (≈ 1.45 µM). Besides, the bioavailability – broadly, the share of a dose that reaches the circulation, judged against a reference dose that is usually intravenous – in data set [19] was 11%. In addition, the Activity in data set [20] is below 10%. Also, the MTD (usually the highest dose tested that stayed within the study's limit of toxicity) at 840 h in [22] is 200 mg/kg.
